Tests used:
HMG Co-A Reductase = target: T1, HMG Co-A Reductase (Rattus norvegicus, UniProt P51639); assay: Measurement of inhibiting effect on HMG Co-A reductase (inhibiting ratio of biosynthesis of cholesterol); assay type: biochemical; details: 0.1 μM samples, compactin = 100
T1 construct: from tissue
T1 sequence (P51639 1-887): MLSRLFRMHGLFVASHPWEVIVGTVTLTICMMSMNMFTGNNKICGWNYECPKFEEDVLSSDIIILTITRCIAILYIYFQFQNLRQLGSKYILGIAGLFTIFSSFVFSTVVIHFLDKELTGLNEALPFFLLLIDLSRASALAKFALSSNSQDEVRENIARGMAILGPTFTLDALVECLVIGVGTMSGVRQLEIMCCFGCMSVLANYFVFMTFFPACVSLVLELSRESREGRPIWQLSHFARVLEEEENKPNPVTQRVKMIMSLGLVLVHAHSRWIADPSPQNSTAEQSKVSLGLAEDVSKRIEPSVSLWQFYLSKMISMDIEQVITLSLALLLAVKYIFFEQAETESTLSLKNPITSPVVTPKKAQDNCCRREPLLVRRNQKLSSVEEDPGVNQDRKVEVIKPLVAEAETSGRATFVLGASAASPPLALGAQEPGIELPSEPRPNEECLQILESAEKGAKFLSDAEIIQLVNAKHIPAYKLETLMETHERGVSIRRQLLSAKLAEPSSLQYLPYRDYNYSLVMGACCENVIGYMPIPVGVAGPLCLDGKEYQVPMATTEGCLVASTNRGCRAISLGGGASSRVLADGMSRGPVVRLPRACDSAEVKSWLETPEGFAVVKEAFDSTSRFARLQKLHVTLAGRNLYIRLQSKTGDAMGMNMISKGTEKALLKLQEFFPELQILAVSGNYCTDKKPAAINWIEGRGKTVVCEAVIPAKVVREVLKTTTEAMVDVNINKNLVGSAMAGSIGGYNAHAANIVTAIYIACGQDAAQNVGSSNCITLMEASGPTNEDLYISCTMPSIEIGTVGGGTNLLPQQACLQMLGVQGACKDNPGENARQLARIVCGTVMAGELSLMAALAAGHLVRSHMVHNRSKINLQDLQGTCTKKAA
Method: The inhibiting effect on HMG Co-A Reductase of representative examples of the 4-hydroxytetrahydropyran-2-one derivatives prepared in the above-discussed examples was measured in accordance with the method described in Journal of Biological Chemistry (J. Biol. Chem.) Vol. 234, page 2835 (1959) in order to investigate the inhibiting activity of each derivative in terms of the inhibiting ratio of the biosynthesis of cholesterol.

rat brain homogenate = assay: Anti-oxidation function: inhibition of automatic ABARTS reproduction of rat brain homogenate; assay type: biochemical; details: vitamin E as reference = 100
Method: The anti-oxidation function of some examples of the 4-hydroxytetrahydropyran-2-one derivatives prepared in the above-discussedexamples was measured as a reference of the inhibition function of the automatic ABARTS reproduction of the rat brain homogenate in accordance with the method described in Nippon Yakuri-shi 87, 427-434 (1986) by K. Shintomi et al.

**Q.** With `Cc1c(CC[C@@H]2C[C@@H](O)CC(=O)O2)c2c(c(C)c1OCc1ccccc1)CCC(C)(C)O2` (relative stereo) [Compound No. 45] as the compound, how does the “Inhibiting Activity (Inhibiting Ratio of Biosynthesis of Cholesterol), relative value when the value of compactin is 100” value (HMG Co-A Reductase) read?
**A.** 39

**Q.** What does the source list for `Cc1c(CC[C@@H]2C[C@@H](O)CC(=O)O2)c2c(c(C)c1OC(=O)c1cccnc1)CCC(C)(C)O2` (relative stereo) [Compound No. 52, trans-(±)-6-[[6-pyridine-3-carboxy)-2,2,5,7-tetramethyl]-chroman-8-yl]ethyl-4-hydroxytetrahydropyran-2-one]?
**A.** Anti-oxidation Function (rat brain homogenate): 19; Inhibiting Activity (Inhibiting Ratio of Biosynthesis of Cholesterol), relative value when the value of compactin is 100 (HMG Co-A Reductase): 18

**Q.** For `Cc1c2c(c(CC[C@@H]3C[C@@H](O)CC(=O)O3)c(C(C)C)c1OC(=O)c1cccnc1)OC(C)(C)C2` (relative stereo) [Compound No. 156, trans-(±)-6-[2,3-dihydro-6-(2-propyl)-5-(pyridine-3-carboxy)-2,2,4-trimethylbenzo[b]furan-7-yl]ethyl-4-hydroxytetrahydropyran-2-one], which “Inhibiting Activity (Inhibiting Ratio of Biosynthesis of Cholesterol), relative value when the value of compactin is 100” value (HMG Co-A Reductase) is on record?
**A.** 180

**Q.** Which “Inhibiting Activity (Inhibiting Ratio of Biosynthesis of Cholesterol), relative value when the value of compactin is 100” value (HMG Co-A Reductase) does the source give for `Cc1c2c(c(CC[C@H]3C[C@H](O)CC(=O)O3)c(C(C)(C)C)c1OCc1ccccc1)OC(C)(C)C2` (racemic) [Compound No. 112, trans-(±)-6-[5-benzyloxy-6-(t-butyl)-2,3-dihydro-2,2,4-trimethylbenzo[b]furan-7-yl]ethyl-4-hydroxytetrahydropyran-2-one] here?
**A.** 190

**Q.** How did the “Inhibiting Activity (Inhibiting Ratio of Biosynthesis of Cholesterol), relative value when the value of compactin is 100” value (HMG Co-A Reductase) turn out when `Cc1c(CC[C@@H]2C[C@@H](O)CC(=O)O2)c2c(c(C)c1OC(=O)c1cccnc1)CC(C)(C)O2` (relative stereo) [Compound No. 31, trans-(±)-6-[2,3-dihydro-5-(pyridine-3-carboxy)-2,2,4,6-tetramethylbenzo[b]furan-7-yl]ethyl-4-hydroxytetrahydropyran-2-one] was run?
**A.** 90

**Q.** How did the “Inhibiting Activity (Inhibiting Ratio of Biosynthesis of Cholesterol), relative value when the value of compactin is 100” value (HMG Co-A Reductase) turn out when `Cc1c(CC[C@@H]2C[C@@H](O)CC(=O)O2)c2c(c(C)c1OCc1ccccc1)CC(C)(C)O2` (relative stereo) [Compound No. 13, trans-(±)-6-(5-benzyloxy-2,3-dihydro-2,2,4,6-tetramethylbenzo[b]furan-7-ethyl-4-hydroxytetrahydropyran-2-one] was run?
**A.** 50

**Q.** Which “Inhibiting Activity (Inhibiting Ratio of Biosynthesis of Cholesterol), relative value when the value of compactin is 100” value (HMG Co-A Reductase) does the source give for `CC(=O)Oc1c(C)c(CC[C@H]2C[C@H](O)CC(=O)O2)c2c(c1C)CC(C)(C)O2` (racemic) [Compound No. 33, trans-(±)-6-(5-acetoxy-2,3-dihydro-2,2,4,6-tetramethylbenzo[b]furan-7-yl)ethyl-4-hydroxytetrahydropyran-2-one] here?
**A.** 21

**Q.** Which “Anti-oxidation Function” value (rat brain homogenate) does the source give for `Cc1c(O)c(C)c2c(c1CC[C@H]1C[C@H](O)CC(=O)O1)OC(C)(C)C2` (racemic) [Compound No. 14, trans-(±)-6-(2,3-dihydro-5-hydroxy-2,2,4,6-tetramethylbenzo[b]furan-7-yl)ethyl-4-hydroxytetrahydropyran-2-one] here?
**A.** 106

**Q.** What about the “Inhibiting Activity (Inhibiting Ratio of Biosynthesis of Cholesterol), relative value when the value of compactin is 100” value (HMG Co-A Reductase) of the same compound?
**A.** 11

**Q.** What does the source list for `CC(=O)Oc1c(C)c(CC[C@@H]2C[C@@H](O)CC(=O)O2)c2c(c1C)CCC(C)(C)O2` (relative stereo) [Compound No. 50, trans-(±)-6-[(6-acetoxy-2,2,5,7-tetramethyl)chroman-8-yl]ethyl-4-hydroxytetrahydropyran-2-one]?
**A.** Anti-oxidation Function (rat brain homogenate): 106; Inhibiting Activity (Inhibiting Ratio of Biosynthesis of Cholesterol), relative value when the value of compactin is 100 (HMG Co-A Reductase): 12

**Q.** With `CC1(C)Cc2cc(OCc3ccccc3)c(C(C)(C)C)c(CC[C@H]3C[C@H](O)CC(=O)O3)c2O1` (racemic) [Compound No. 124, trans-(±)-6-[5-benzyloxy-6-(t-butyl)-2,3-dihydro-2,2-dimethylbenzo[b]furan-7-yl]ethyl-4-hydroxytetrahydropyran-2-one] as the compound, how does the “Inhibiting Activity (Inhibiting Ratio of Biosynthesis of Cholesterol), relative value when the value of compactin is 100” value (HMG Co-A Reductase) read?
**A.** 300

**Q.** With `CC(C)c1c(OCc2ccccc2)cc2c(c1CC[C@H]1C[C@H](O)CC(=O)O1)OC(C)(C)C2` (racemic) [Compound No. 154, trans-(±)-6-[5-benzyloxy-2,3-dihydro-2,2-dimethyl-6-(2-propyl)benzo[b]furan-7-yl]ethyl-4-hydroxytetrahydropyran-2-one] as the compound, how does the “Inhibiting Activity (Inhibiting Ratio of Biosynthesis of Cholesterol), relative value when the value of compactin is 100” value (HMG Co-A Reductase) read?
**A.** 250

**Q.** Which “Anti-oxidation Function” value (rat brain homogenate) does the source give for `Cc1c(O)c(C)c2c(c1CC[C@@H]1C[C@@H](O)CC(=O)O1)OC(C)(C)CC2` (relative stereo) [Compound No. 46, trans-(±)-6-[(6-hydroxy-2,2,5,7-tetramethyl)chroman-8-yl]ethyl-4-hydroxytetrahydropyran-2-one] here?
**A.** 106

**Q.** What about the “Inhibiting Activity (Inhibiting Ratio of Biosynthesis of Cholesterol), relative value when the value of compactin is 100” value (HMG Co-A Reductase) of the same compound?
**A.** 28

**Q.** `Cc1c2c(c(CC[C@H]3C[C@H](O)CC(=O)O3)c(C(C)C)c1OCc1ccccc1)OC(C)(C)C2` (racemic) [Compound No. 81, trans-(±)-6-[5-benzyloxy-2,3-dihydro-6-(2-propyl)-2,2,4-trimethylbenzo[b]furan-7-yl]ethyl-4-hydroxytetrahydropyran-2-one] was tested. Which “Inhibiting Activity (Inhibiting Ratio of Biosynthesis of Cholesterol), relative value when the value of compactin is 100” value (HMG Co-A Reductase) did it give?
**A.** 427

**Q.** For Vitamin E [reference compound], which “Anti-oxidation Function” value (rat brain homogenate) is on record?
**A.** 100
